A short description of data set [1]: Bulk and tapped density (in-house method, filled space of 500 mg in a test tube). Type of data set: physicochemical. The procedure:
Density was determined by an in-house method measuring the filled space by a sample of 500 mg in a test tube before and after hitting the tube (bulk and tapped density, respectively):
The compressibility index calculated from bulk and tapped densities can be used to estimate the flow characteristics of the powder. Following the rule described in the article Chem Eng 1965; 72:163-168, it can be considered that the flow character should be: • Excellent for Enclomiphene base having prismatic shaped crystal habit, • Passable for Enclomiphene base having non-prismatic shaped crystal habit (of example 19).

Data set [2] in a line: Flowability through a glass funnel (in-house method). Type of data set: physicochemical. The procedure: Flowability was determined by an in-house method using a glass funnel (diameter 80 mm-stem diameter 10 mm-stem length 75 mm) with approximately 5 g of product repeating the process three times (in the cases in which flowability was observed). Different parameters were observed: • Flow or not • Need of percussion • Time to pass through the funnel

A short description of data set [3]: Filterability of suspension in ethanol. In kind it is physicochemical. The following applies: 40 mL of suspension in ethanol, on paper over a Buckner. Here is the method:
Enclomiphene having prismatic shaped crystal habit is indeed very well filterable, since, for example, the filtration (on paper over a Buckner) of 40 mL of suspensions containing of said solid in ethanol takes only 10 seconds.

The nature of data set [4]: Particle size distribution by laser diffraction, wet dispersion. In kind it is physicochemical. The text has this:
Different techniques can be used in order to determine the population size distribution (Microscopy image analysis, sieving, sedimentation . . . ). However laser diffraction particle size analyzer using light scattering is one of the most widely used. It is worth noting that each technique is liable to generate a different mean diameter as well as measuring different properties of the particle. Therefore it is very important to indicate the used technique when a result of mean size is given.
Particle size analysis by laser diffraction analyzer can be performed in wet or dry dispersion. However wet dispersion was selected because: • it allows to use only a small amount of sample, • it is recommended for fragile particles such as organic crystals.
Particle size distribution was analyzed in a Beckman Coulter LS13320 apparatus equipped with an Universal Liquid Module.
The particles have to be insoluble in the liquid used for the wet dispersion to avoid dissolution during the measurement.
40 mg of the sample were stirred in 25 ml of water and 3 drops of Triton X100 (to improve the wettability of the crystals and to avoid agglomeration during the analysis). If necessary, ultrasonic irradiation (bath 30 kHz and 200 W) was used for short time in order to break up any agglomerates or aggregates.

Data set [5] can be described thus: Stability study of crystal habit by microscopy, three stability conditions for 30 days. Type of data set: physicochemical. As to conditions: 30 days at 60% RH, 75% RH-40° C., 95% RH. From the text:
(B), and 95% RH (C), with reflected light (left) and transmitted light (right) (scale 500 μm).
Microscopy analysis of Enclomiphene base having prismatic shaped crystal habit exposed to three stability conditions for 30 days indicated the same colorless transparent prism as the starting product.

Data set [6] is described as follows: Hygroscopicity by DVS (Dynamic Vapour Sorption). The following applies: 25° C.; for water uptake at 95% RH: 0-95% RH. Type of data set: physicochemical. The procedure:
This is a gravimetric technique that measures how much water is absorbed or desorbed by a sample at different relative humidity (RH). At each RH, the sample mass must be allowed to reach gravimetric equilibrium (or surpassed time limit) before progressing to the next humidity level. Sorption and desorption isotherms will be performed at 25° C. over a range of 0-95% RH. The type of sorption isotherm is determined by the pore size and surface character of the material.

Data set [7] can be described thus: Kinetic solubility study at pH 4.5 (acetic acid/sodium acetate buffer, HPLC area). As to conditions: for Encl. Citr. average / solubility at pH 4.5 compared with Enclomiphene citrate having non-needle crystals: pH 4.5. Here is the method: (§1) Solubility was determined by HPLC analysis, by comparison of the area corresponding to Enclomiphene HPLC peak.
(§2) To carry out the solubility studies, 400 mg of each product (not grinded) was stirred in water (24 ml, 60v) under the same conditions of stirring speed (magnetic stirring at 1000 rpm with a 2 cm “rugby shape” stir bar), flask used (round bottom flask of 50 ml of capacity with a 29/32 neck), etc. Alliquotes of ca 6 ml of suspension were filtered at different times: 15, 45, 90 and 180 min. After filtration, mother liquors were directly analyzed by HPLC (doing 2 replicates for each analysis) and its pH was determined. The filtered solid was analyzed by XRPD. The solubility analysis was repeated for each product and comparison of solubility was determined by the differences of HPLC area.
Solubility at a slightly acid medium was determined at pH 4.5 buffer used was a mixture acetic acid/sodium acetate prepared according to USP specifications.

Data set [8] is described as follows: Kinetic solubility study in water (HPLC area of Enclomiphene peak). Here is the method:
as §1
For each solubility study, the following parameters were monitored: • intensity of Enclomiphene peak for each replicate of the assay • average value • standard deviation.
as §2
Below an HPLC method that allow to have a fast determination of Enclomiphene solubility:
These HPLC conditions were used to perform solubility analysis.

The mark [9] stands for this setting: first run (example 19: with constant percussion).
Setting [10] is: first run, approx. 5 g, glass funnel.
The mark [11] stands for this setting: water + Triton X100, without sonication, listed as Enclomiphene having prismatic shaped crystal habit.
[12] abbreviates: water + Triton X100, without sonication, listed as Sample 724.
The mark [13] stands for this setting: water + Triton X100, without sonication, listed as batch 724.
Where [14] appears, read: water + Triton X100, without sonication, listed as Sample 725.
[15] abbreviates: water + Triton X100, without sonication, listed as batch 725.

SMILES strings stand for the structures. Values joined by “and” are separate entries in the source; they are usually repeats but may differ in a detail not shown here. Equal entries are not always repeated. “Also recorded” adds a separate entry of the source.

As to `CCN(CC)CCOc1ccc(/C(=C(/Cl)c2ccccc2)c2ccccc2)cc1` [Enclomiphene base (example 18), Enclomiphene], the “filled space of 500 mg in test tube” value in data set [1] (filled space of 500 mg in a test tube after hitting the tube, listed as Enclomiphene (example 18)) is recorded as 8 mm; in data set [1] (filled space of 500 mg in a test tube after hitting the tube, listed as Enclomiphene base having prismatic crystal habit), 8 mm; in data set [1] (filled space of 500 mg in a test tube before hitting the tube, listed as Enclomiphene (example 18)), 8 mm; in data set [1] (filled space of 500 mg in a test tube before hitting the tube, listed as Enclomiphene base having prismatic crystal habit), 8 mm. In addition, in data set [1] (listed as Enclomiphene (example 18)), the “Reduced space (bulk vs tapped)” value is recorded as 0%. Besides, the “Percussion needed?” value in data set [2] (first run) was “Yes”; in data set [2] (second run) it was “Yes”; in data set [2] (third run), “yes”. Also, the “time to pass through the funnel” value is on record as 15 s in data set [2] (setting [9]); 12 s in data set [2] (second run); 14 s in data set [2] (third run); 10 s in data set [2] (with percussion, listed as Enclomiphene having prismatic shaped crystal habit). The “Flow?” value in data set [2] (setting [10]), in data set [2] (second run) and in data set [2] (third run) was “Yes” in each case. Moreover, the “flow through the funnel” value in data set [2] (listed as Enclomiphene having prismatic shaped crystal habit) is reported as “flowed through the funnel”. Moreover, the filtration time in data set [3] is 10 s. Moreover, the “PSD D10” value is 80 μm in data set [4] (setting [11]) and 81.89 μm in data set [4] (setting [12]). The “PSD D90” value in data set [4] (setting [11]) and in data set [4] (setting [12]) was 770 μm in each case. Besides, the “PSD Mean” value in data set [4] (setting [12]) and in data set [4] (setting [13]) was 374.3 μm in each case. In addition, the “PSD Median (D50)” value in data set [4] (setting [12]) came to 306.4 μm; in data set [4] (setting [13]), 306.54 μm. For the same compound, in data set [4] (setting [12]), the “PSD Mode” value was found to be 356.1 μm. Besides, the “stability of crystal habit” value in data set [5] is recorded as “remains stable at least one month”. Moreover, in data set [6] (whole range 0-95% RH), the “hygroscopicity (in words)” value was “not hygroscopic”.

For the compound `CCN(CC)CCOc1ccc(/C(=C(/Cl)c2ccccc2)c2ccccc2)cc1` [Enclomiphene acetate], the “Encl. Citr. average” value in data set [7] (0 min) is on record as 0 HPLC area; in data set [7] (15 min) it was 14069 HPLC area; in data set [7] (45 min), 13771 HPLC area; in data set [7] (90 min) it was 13708 HPLC area; in data set [7] (180 min), 13196 HPLC area.

With `CCN(CC)CCOc1ccc(/C(=C(/Cl)c2ccccc2)c2ccccc2)cc1.O=C(O)CC(O)(CC(=O)O)C(=O)O` [Enclomiphene citrate having needle crystals], the “solubility in water compared with Enclomiphene citrate having non-needle shaped crystal habit” value in data set [8] (water, listed as Enclomiphene citrate having needle shaped crystal habit) is listed as “almost double; also recorded: almost two times”. Further, the “solubility at pH 4.5 compared with Enclomiphene citrate having non-needle crystals” value is 4 to 5 times in data set [7] and “four times higher” in data set [7] (listed as Enclomiphene citrate having needle shaped crystal habit). Further, the Average a/a is listed as 0 a/a in data set [7] (pH = 4.5, 0 min); 4135 a/a in data set [7] (pH = 4.5, 15 min); 4024 a/a in data set [7] (pH = 4.5, 45 min); 5109 a/a in data set [7] (pH = 4.5, 90 min); 5079 a/a in data set [7] (pH = 4.5, 180 min). Also, the “water uptake at 95% RH” value in data set [6] (listed as batch 723) is 2.33 % weight and 2.3 % weight.

On to `CCN(CC)CCOc1ccc(/C(=C(/Cl)c2ccccc2)c2ccccc2)cc1` [Enclomiphene base (example 19), Enclomiphene], for which the “filled space of 500 mg in test tube” value in data set [1] (filled space of 500 mg in a test tube after hitting the tube, listed as Enclomiphene (example 19)) is 13 mm; in data set [1] (filled space of 500 mg in a test tube after hitting the tube, listed as Enclomiphene base having non-prismatic crystal habit), 13 mm; in data set [1] (filled space of 500 mg in a test tube before hitting the tube, listed as Enclomiphene (example 19)), 17 mm; in data set [1] (filled space of 500 mg in a test tube before hitting the tube, listed as Enclomiphene having non-prismatic crystal habit) it was 24 mm. For the same compound, the “Reduced space (bulk vs tapped)” value in data set [1] (listed as Enclomiphene (example 19)) was 24%. The “Percussion needed?” value in data set [2] (first run) is “Yes (if constant)”. For the same compound, the “time to pass through the funnel” value in data set [2] (setting [9]) is 130 s; in data set [2] (with percussion, listed as Enclomiphene having non-prismatic shaped crystal habit), 130 s. The “Flow?” value in data set [2] (setting [10]) was “No (static”. Besides, the “flow through the funnel” value in data set [2] (listed as Enclomiphene having non-prismatic shaped crystal habit) is “did not flow”. In addition, the entries for the “PSD D10” value in data set [4] (10 sec sonication) and in data set [4] (setting [14]) were 0.100 μm and 5.819 μm, respectively. Besides, the “PSD D90” value in data set [4] (10 sec sonication) is 1.942 μm; in data set [4] (setting [14]), 90.47 μm. Also, the “PSD Mean” value was found to be 0.715 μm in data set [4] (10 sec sonication), 36.79 μm in data set [4] (setting [14]) and 36.79 μm in data set [4] (setting [15]). For the same compound, the results for the “PSD Median (D50)” value in data set [4] (10 sec sonication), in data set [4] (setting [14]) and in data set [4] (setting [15]) were 0.284 μm, 24.96 μm and 24.96 μm, respectively. Further, the “PSD Mode” value in data set [4] (10 sec sonication) turned out to be 1.748 μm; in data set [4] (setting [14]) it was 26.14 μm.

For `CCN(CC)CCOc1ccc(/C(=C(/Cl)c2ccccc2)c2ccccc2)cc1` [Enclomiphene base, Enclomiphene], the “solubility in water (in words)” value in data set [8] is “highly insoluble”.

With `CCN(CC)CCOc1ccc(/C(=C(/Cl)c2ccccc2)c2ccccc2)cc1.O=C(O)CC(O)(CC(=O)O)C(=O)O` [Enclomiphene citrate having non-needle crystals] [trans-Clomiphene monocitrate], the Average a/a came out at 0 a/a in data set [7] (pH = 4.5, 0 min); 1185 a/a in data set [7] (pH = 4.5, 15 min); 924 a/a in data set [7] (pH = 4.5, 45 min); 1095 a/a in data set [7] (pH = 4.5, 90 min); 1052 a/a in data set [7] (pH = 4.5, 180 min). For the same compound, in data set [6] (0-65% RH), the “moisture sorption between 0% and 65% RH” value turned out to be 2 % weight. Besides, the “water uptake at 95% RH” value in data set [6] (listed as batch 722) came to 6 % weight.

Source of the values: patent US20170349533A1 (F.I.S.- FABBRICA ITALIANA SINTETICI S.P.A, priority 2014, published 2017).
